Assay results reported in ChEMBL document CHEMBL4673406, “Discovery and Preclinical Evaluation of BMS-986242, a Potent, Selective Inhibitor of Indoleamine-2,3-dioxygenase 1” (ACS Med Chem Lett, 2021).

What was measured:
[1] = Solubility of the compound at pH 6.5 to 7.4; assay type: physicochemical; conditions: buffer
[2] = target: T1, Indoleamine 2,3-dioxygenase 1 (Homo sapiens, UniProt P14902); assay: Inhibition of IDO1 in IFNgamma/LPS-stimulated human whole blood preincubated for 4 hrs followed by IFNgamma/LPS stimulation and incubated for 18 hrs by Rapid-fire mass spectrometry analysis; assay type: tissue-based
[3] = target: Indoleamine 2,3-dioxygenase 1 (Mus musculus, UniProt P28776); assay: Inhibition of IDO1 in IFNgamma-stimulated mouse M109 cells preincubated for 2 hrs followed by IFNgamma stimulation and measured after 18 hrs by; assay type: cell-based
[4] = target: T1, Indoleamine 2,3-dioxygenase 1; assay: Inhibition of IDO1 in IFNgamma-stimulated human HeLa cells preincubated for 2 hrs followed by IFNgamma stimulation and measured after 18 hrs by
[5] = in vitro; conditions: mouse, liver microsomes
Description: Metabolic stability in mouse liver microsomes assessed as parent compound remaining at 0.5 uM measured after 10 mins

[6] = in vitro; conditions: human, liver microsomes
Description: Metabolic stability in human liver microsomes assessed as parent compound remaining at 0.5 uM measured after 10 mins

[7] = Aqueous solubility of the compound at pH 6.5; assay type: physicochemical; conditions: buffer
[8] = target: Indoleamine 2,3-dioxygenase 1 (Mus musculus) (UniProt P28776); assay: In vivo inhibition of IDO1 in nu/nu mouse xenografted with human SK-OV-3 cells assessed as reduction in kynurenine level at 60 mg/kg, po qd by HPLC-MS/MS analysis relative to control; assay type: functional, organism-based
[9] = in vivo; conditions: nu/nu, mouse, tumor, po, 60 mg/kg
Description: AUC (0 to 24 hrs) in nu/nu mouse xenografted with human SK-OV-3 cells measured in tumor at 60 mg/kg, po qd by uHPLC-MS/MS analysis

[10] = AUC (0 to 24 hrs) in nu/nu mouse xenografted with human SK-OV-3 cells measured in tumor at 100 mg/kg, po bid by uHPLC-MS/MS analysis; assay type: ADME, organism-based; parameters: time < 24 hr, route oral, dose 100 mg/kg

T1 sequence (P14902 whole entry): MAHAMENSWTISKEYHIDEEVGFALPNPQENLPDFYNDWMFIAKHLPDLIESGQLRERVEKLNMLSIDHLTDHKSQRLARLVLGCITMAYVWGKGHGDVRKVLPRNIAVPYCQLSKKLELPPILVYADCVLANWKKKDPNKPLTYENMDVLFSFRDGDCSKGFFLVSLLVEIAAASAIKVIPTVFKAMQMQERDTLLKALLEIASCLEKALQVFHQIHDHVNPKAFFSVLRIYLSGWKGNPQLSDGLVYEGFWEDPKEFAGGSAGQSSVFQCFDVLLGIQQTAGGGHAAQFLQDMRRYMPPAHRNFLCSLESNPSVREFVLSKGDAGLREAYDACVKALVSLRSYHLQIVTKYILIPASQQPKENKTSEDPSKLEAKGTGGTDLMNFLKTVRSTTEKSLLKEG
Chain of Indoleamine 2,3-dioxygenase 1 (Mus musculus, UniProt P28776) (P28776 whole entry): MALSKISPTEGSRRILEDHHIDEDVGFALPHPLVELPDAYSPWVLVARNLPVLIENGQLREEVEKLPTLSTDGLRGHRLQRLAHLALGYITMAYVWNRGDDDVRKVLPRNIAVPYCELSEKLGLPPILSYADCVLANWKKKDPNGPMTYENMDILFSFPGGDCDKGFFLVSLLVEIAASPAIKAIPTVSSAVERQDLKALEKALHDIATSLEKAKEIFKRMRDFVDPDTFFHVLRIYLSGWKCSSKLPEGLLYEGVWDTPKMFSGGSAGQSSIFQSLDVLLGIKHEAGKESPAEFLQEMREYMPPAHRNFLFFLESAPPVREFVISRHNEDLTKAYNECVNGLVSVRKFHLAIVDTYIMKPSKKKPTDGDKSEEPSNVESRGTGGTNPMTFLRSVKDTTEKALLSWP
Chain of Indoleamine 2,3-dioxygenase 1 (Mus musculus) (P28776 whole entry, looked up): as the sequence (P28776 whole entry) above

C[C@@H](NC(=O)c1ccc(-c2ccccc2)cc1)[C@H]1CC[C@@H](c2ccnc3ccc(F)cc32)CC1
solubility [1]: < 1 µg/mL | IC50 [2]: 22 nM | IC50 [3]: 3 nM | IC50 [4]: 2 nM | remaining at 10 min, 0.5 µM [5]: 70% | remaining at 10 min, 0.5 µM [6]: 59%

C[C@@H](NCc1ccc(Cl)cc1)[C@H]1CC[C@@H](c2ccnc3ccc(F)cc32)CC1
IC50 [2]: > 1000 nM | IC50 [3]: > 1000 nM | IC50 [4]: 745 nM | remaining at 10 min, 0.5 µM [5]: 2% | remaining at 10 min, 0.5 µM [6]: 34%

C[C@@H](NC(=O)Nc1ccc(Cl)cc1)[C@H]1CC[C@@H](c2ccnc3ccc(F)cc32)CC1
IC50 [2]: 280 nM | IC50 [3]: 67 nM | IC50 [4]: 20 nM | remaining at 10 min, 0.5 µM [5]: 14% | remaining at 10 min, 0.5 µM [6]: 52%

C[C@@H](CNc1ccc(Cl)cc1)[C@H]1CC[C@@H](c2ccnc3ccc(F)cc32)CC1
IC50 [2]: 44 nM | IC50 [3]: 62 nM | IC50 [4]: 7 nM | remaining at 10 min, 0.5 µM [5]: 80% | remaining at 10 min, 0.5 µM [6]: 80%

C[C@@H](NC(=O)C1CCCCC1)[C@H]1CC[C@@H](c2ccnc3ccc(F)cc32)CC1
IC50 [2]: 294 nM | IC50 [3]: 86 nM | IC50 [4]: 12 nM | remaining at 10 min, 0.5 µM [5]: 5% | remaining at 10 min, 0.5 µM [6]: 6%

C[C@@H](NC(=O)Cc1ccc(Cl)cc1)[C@H]1CC[C@@H](c2ccnc3ccc(F)cc32)CC1
IC50 [2]: 779 nM | IC50 [3]: 651 nM | IC50 [4]: 125 nM | remaining at 10 min, 0.5 µM [5]: 2% | remaining at 10 min, 0.5 µM [6]: 8%

C[C@@H](NS(=O)(=O)c1ccc(Cl)cc1)[C@H]1CC[C@@H](c2ccnc3ccc(F)cc32)CC1
IC50 [2]: 484 nM | IC50 [3]: > 1000 nM | IC50 [4]: > 1000 nM | remaining at 10 min, 0.5 µM [5]: < 1% | remaining at 10 min, 0.5 µM [6]: 29%

C[C@@H](NC(=O)c1cccc(Cl)c1)[C@H]1CC[C@@H](c2ccnc3ccc(F)cc32)CC1
IC50 [2]: 97 nM | IC50 [3]: 48 nM | IC50 [4]: 7 nM | remaining at 10 min, 0.5 µM [5]: 9% | remaining at 10 min, 0.5 µM [6]: 39%

C[C@@H](NC(=O)c1ccccc1Cl)[C@H]1CC[C@@H](c2ccnc3ccc(F)cc32)CC1
IC50 [2]: 135 nM | IC50 [3]: 215 nM | IC50 [4]: 12 nM | remaining at 10 min, 0.5 µM [5]: 7% | remaining at 10 min, 0.5 µM [6]: 21%

C[C@H](NC(=O)[C@H](C)[C@H]1CC[C@@H](c2ccnc3ccc(F)cc32)CC1)c1ccc(Cl)cc1
IC50 [2]: > 1000 nM | IC50 [3]: 870 nM | IC50 [4]: 67 nM | remaining at 10 min, 0.5 µM [5]: 5% | remaining at 10 min, 0.5 µM [6]: 19%

COc1ccc(C(=O)N[C@H](C)[C@H]2CC[C@@H](c3ccnc4ccc(F)cc43)CC2)cc1N1CCOCC1
solubility [7]: < 1 µg/mL | IC50 [2]: 35 nM | IC50 [3]: 20 nM | IC50 [4]: 7 nM | remaining at 10 min, 0.5 µM [5]: 4% | remaining at 10 min, 0.5 µM [6]: 2%

C[C@@H](CNC(=O)c1ccc(Cl)cc1)[C@H]1CC[C@@H](c2ccnc3ccc(F)cc32)CC1
IC50 [2]: 158 nM | IC50 [3]: 772 nM | IC50 [4]: 261 nM | remaining at 10 min, 0.5 µM [5]: 32% | remaining at 10 min, 0.5 µM [6]: 56%

C[C@@H](C(=O)Nc1ccc(Cl)cc1)[C@H]1CC[C@@H](c2ccnc3ccc(F)cc32)CC1
inhibition [8]: 61% | AUC at 24 h [9]: 34.9 µM·h | remaining at 10 min, 0.5 µM [5]: 31% | remaining at 10 min, 0.5 µM [6]: 84%

NS(=O)(=O)NCCNc1nonc1C(=NO)Nc1ccc(F)c(Br)c1 [EPACADOSTAT]
AUC at 24 h [10]: 48 µM·h

COc1ncc(NC(=O)[C@H](C)[C@H]2CC[C@@H](c3ccnc4ccc(F)cc43)CC2)cn1
IC50 [2]: 80 nM | IC50 [3]: 92 nM | IC50 [4]: 10 nM | remaining at 10 min, 0.5 µM [5]: 51% | remaining at 10 min, 0.5 µM [6]: 73%

C[C@@H](C(=O)NC1CCCCC1)[C@H]1CC[C@@H](c2ccnc3ccc(F)cc32)CC1
IC50 [2]: 470 nM | IC50 [3]: 287 nM | IC50 [4]: 18 nM | remaining at 10 min, 0.5 µM [5]: < 1% | remaining at 10 min, 0.5 µM [6]: < 1%

C[C@@H](c1nc2ccc(Cl)cc2[nH]1)[C@H]1CC[C@@H](c2ccnc3ccc(F)cc32)CC1
IC50 [2]: 28 nM | IC50 [3]: 12 nM | IC50 [4]: 4 nM | remaining at 10 min, 0.5 µM [5]: 12% | remaining at 10 min, 0.5 µM [6]: 48%

C[C@@H](NC(=O)C12CCC(Cl)(CC1)CC2)[C@H]1CC[C@@H](c2ccnc3ccc(F)cc32)CC1
IC50 [2]: 579 nM | IC50 [3]: 56 nM | remaining at 10 min, 0.5 µM [5]: 10% | remaining at 10 min, 0.5 µM [6]: 9%
